{"source": "patent US6716883B1", "about": "“Composition useful to treat periodontal disease” (priority 1998, dated 2004)", "key": {"[1]": {"system": "rat bone marrow cell line (RBMCL)", "experiment": "APA in rat bone marrow cell line (RBMCL)", "type": "cell-based"}, "[2]": {"system": "rat bone marrow cells (RBMC)", "experiment": "APA in primary rat bone marrow cell (RBMC) bone formation system", "type": "cell-based", "from_the_text": "Rat bone marrow cells were derived from femoral bones removed from adult male Wistar rats as described previously (Maniatopoulos et al., Cell Tissue Res, 1988, 254(2):317-330). These cells, grown in the presence of dexamethasone, vitamin C and b-glycerophosphate, differentiated into osteoblasts as shown by increases in APA and the production of mineralized bone nodules within 12-14 days. For the purposes of this investigation, we analyzed 10-16 day cultures for APA, as this was a reliable marker for osteoblastic differentiation in this system."}, "AhR in SBMC cells": {"biological_target": "T1, AhR in SBMC cells (Rattus norvegicus, UniProt P41738)", "T1 construct": "endogenous in cells; host or cells: rat stromal bone marrow cell line (RSBMC / SBMC)", "T1 sequence (P41738 10-853)": "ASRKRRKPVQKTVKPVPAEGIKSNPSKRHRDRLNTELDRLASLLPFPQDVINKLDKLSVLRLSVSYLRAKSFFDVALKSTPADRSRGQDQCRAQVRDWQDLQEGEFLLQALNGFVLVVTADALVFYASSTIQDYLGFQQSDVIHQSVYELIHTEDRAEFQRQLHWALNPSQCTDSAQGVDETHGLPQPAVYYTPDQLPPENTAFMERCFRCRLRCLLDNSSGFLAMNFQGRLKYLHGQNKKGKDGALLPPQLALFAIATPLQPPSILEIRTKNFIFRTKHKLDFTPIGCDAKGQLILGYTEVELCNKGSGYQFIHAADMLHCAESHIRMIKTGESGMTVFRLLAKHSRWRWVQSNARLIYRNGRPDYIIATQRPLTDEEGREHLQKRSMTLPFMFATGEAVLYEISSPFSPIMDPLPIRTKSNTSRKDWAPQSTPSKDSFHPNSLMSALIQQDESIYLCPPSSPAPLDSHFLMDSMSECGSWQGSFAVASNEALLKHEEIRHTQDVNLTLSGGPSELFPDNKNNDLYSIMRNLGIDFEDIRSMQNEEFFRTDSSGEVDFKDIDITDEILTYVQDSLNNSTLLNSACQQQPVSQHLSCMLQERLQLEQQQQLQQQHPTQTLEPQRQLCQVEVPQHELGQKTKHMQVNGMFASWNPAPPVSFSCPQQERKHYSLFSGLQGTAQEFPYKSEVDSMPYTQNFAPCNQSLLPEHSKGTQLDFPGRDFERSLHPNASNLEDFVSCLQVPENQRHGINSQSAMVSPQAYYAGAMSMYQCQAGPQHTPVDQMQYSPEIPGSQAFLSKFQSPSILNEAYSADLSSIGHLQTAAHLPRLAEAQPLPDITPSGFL", "experiment": "Live whole cell (RSBMC) competitive uptake/binding assay with 3H-TCDD", "method": "The need for preincubation (see below) may also alter competition kinetics in this type of binding assay. Cells were plated at a density of 10,000 per well in Titertek 96-well plates, and left overnight to attach in medium. […] Cells were preincubated with cold drug one hour prior to addition of radiolabeled TCDD (specific activity 33.4 Ci/mmol; Chemsyn Lab, Kansas) (pilot studies having shown that preincubation was required to detect competition). One set of wells was incubated without cold drug to determine total binding. ^3H-TCDD (10,000 cpm/well in a volume of 10 μl) was added and incubated for 4 hours at room temperature. The media were aspirated and the cells washed 4× with 100 μl of PBS. 100 μl of 0.1N sulphuric acid was added and the cells were incubated at 37° C. overnight to break the cells open. 80 μl of the lysate was added to 5 ml of scintillation fluid and counted in a beta counter."}, "[3]": {"system": "chick periosteal osteogenesis (CPO) cultures", "experiment": "Newly synthesized 14C-labeled collagen type I in CPO cultures", "type": "cell-based", "description": "For the purposes of this investigation, the effects of a potent aryl hydrocarbon, TCDD (2,3,7,8-tetrachlorodibenzo-p-dioxin or dioxin) on the early events occurring during osteogenesis were determined. The CPO model traverses a number of phases of osteogenesis. Therefore, it was possible to design temporal or “window” experiments in order to determine the phases of osteogenesis that were sensitive to TCDD and/or resveratrol. […] All cultures were maintained for the entire 6-day period. The compounds were administered over four different temporal phases, as outlined below in the time-line diagram: a) days 0-6; b) days 0-2; c) days 2-4 or d) days 4-6 (Note: all cultures were stopped at 6 days). Results were compared to e) vehicle alone over days 0-6. [drawing 1]\nRadiolabeled collagen was measured in CPO cultures incubated with ^14C-glycine (Amersham, 59 mCi/mMole) at a concentration of 10 μci/ml media in each group over days 4-6. The cultures were hydrolyzed in 0.1 ml of 0.1N HCl and vortexed. After 15 minutes, the supernatant was removed and saved in a 2 ml eppendorf tube. The culture was transferred to a 0.5 ml eppendorf tube containing 0.1 ml of pepsin (50 μg/ml in 0.1% glacial acetic acid) for further digestion of labeled collagen. These were maintained in a 15° C. water bath for 5 hours, vortexing the samples every hour. The supernatant was transferred to a new 0.5 ml eppendorf tube and was then lyophilized overnight. The amount of radiolabeled collagen was determined by gel electrophoresis as described hereunder. The lyophilized samples were reconstituted with 0.1 ml of a solution made of 70% sample buffer (10 mM Tris.HCl and 1 mM EDTA, pH 8.0) (Sigma-Aldrich Canada Ltd., Oakville, Canada), 2.5% SDS (Sigma), 5% β-mercaptoethanol (Sigma) and 0.01% bromophenol-blue (Sigma). […]\nFluorography was used to analyze the amount of newly synthesized ^14C-labeled collagen in each sample. […] The intensity of the resultant bands on the film was quantified using a laser densitometer to give a measure of the amount of newly synthesized collagen in each sample."}, "rat bone marrow cultures [4]": {"system": "rat bone marrow cultures", "experiment": "Mineral levels in rat bone marrow cultures treated with BaP", "type": "cell-based", "details": "resveratrol and BaP together"}, "rat bone marrow cultures [5]": {"system": "rat bone marrow cultures", "experiment": "APA in rat bone marrow cultures treated with BaP", "type": "cell-based", "details": "resveratrol (10^−6M) added with BaP", "description": "In this experiment, the effects of the aryl hydrocarbon, benzo-a-pyrene (BaP) on the early events occurring during osteogenesis were determined. Ten-day old rat bone marrow cultures were treated with increasing concentrations of BaP. The effect of this treatment was monitored by APA as set out above."}, "IL-1 Beta": {"system": "IL-1 Beta", "details": "Casper et al. 1999; cited from earlier work"}, "[6]": {"details": "resveratrol 4×10^−8M to 3×10^−5M with TCDD"}}, "data": [{"molecule": "Clc1cc2c(cc1Cl)Oc1cc(Cl)c(Cl)cc1O2", "note": "[TCDD, 2,3,7,8-tetrachlorodibenzo-p-dioxin]", "values": [{"measurement": "inhibition of osteogenic differentiation (APA)", "setting": "[1]; TCDD, 6 day cultures, in comparison to CPO and RBMC", "result": "lower dose of TCDD was able to inhibit osteogenic differentiation"}, {"measurement": "inhibition at 0.001 µM", "setting": "[2]; Rattus norvegicus, Bone marrow cell, read-out: inhibition of osteodifferentiation as measured by APA, compared to alcohol-treated control", "result": "~50", "unit": "%"}, {"measurement": "IC50", "setting": "AhR in SBMC cells", "result": "~3.7", "unit": "nM"}, {"measurement": "concentration reducing 3H-TCDD binding to background levels", "setting": "AhR in SBMC cells; 1 h preincubation with cold drug, 4 h with 3H-TCDD at room temperature", "result": 33, "unit": "nM"}, {"measurement": "decrease in newly synthesized collagen type I levels", "setting": "[3]; 10^−9M TCDD alone, p>0.05", "result": "about 30%"}]}, {"molecule": "Oc1ccc(C=Cc2cc(O)cc(O)c2)cc1", "note": "[resveratrol, 3,5,4′-trihydroxystilbene]", "values": [{"measurement": "APA in comparison to control", "setting": "[1]; [6]", "result": "appeared to stimulate APA"}, {"measurement": "inhibition of TCDD-mediated inhibition of osteoblastic differentiation (APA)", "setting": "[1]; [6]", "result": "able to inhibit TCDD-mediated inhibition of osteoblastic differentiation"}, {"measurement": "abrogation of TCDD effects on APA", "setting": "[2]; resveratrol 10^−6 molar in alcohol, added together or singly between days 4-10, FIG. 9", "result": "completely abrogated the effects of TCDD"}, {"measurement": "effect on APA", "setting": "[2]; resveratrol alone", "result": "no significant effects"}, {"measurement": "newly synthesized collagen type I levels", "setting": "[3]; 10^−6M resveratrol alone, compared to vehicle", "result": "no effect"}, {"measurement": "newly synthesized collagen type I level", "setting": "[3]; co-treatment with TCDD and resveratrol, versus TCDD alone", "result": "not significantly different"}, {"measurement": "reversal of BaP effects on mineral levels", "setting": "rat bone marrow cultures [4]; BaP 10^−8M", "result": "complete reversal"}, {"measurement": "reversal of BaP effects on mineral levels", "setting": "rat bone marrow cultures [4]; higher concentrations of BaP", "result": "partial reversal"}, {"measurement": "reversal of BaP's inhibitory effect on alkaline phosphatase", "setting": "rat bone marrow cultures [5]", "result": "reversal of BaP's inhibitory effect"}, {"measurement": "induction of IL-1 Beta by AhR ligands", "setting": "IL-1 Beta", "result": "prevent the induction"}]}]}
